Measurements from patent US3993765A, “1-Propyl-triazolyl antimycotic compositions and methods of treating mycoses” (Bayer Aktiengesellschaft, priority 1973, dated 1976).
Values after ≈ are worked out from the molar mass of the structure shown.

Experiments:
[1] = system: Trichophyton mentagrophytes; experiment: Antimycotic activity in vitro (series dilution test), Trichophyton mentagrophytes; format: cell-based; conditions: growth no longer detectable, Sabourauds' milieu d'epreuve, 28° C, 24 to 96 hours, read-out: Minimum inhibitory concentration
Penicillium commune = experiment: Antimycotic activity in vitro (series dilution test), Penicillium commune; format: cell-based; conditions: growth no longer detectable, Sabourauds' milieu d'epreuve, 28° C, 24 to 96 hours, read-out: Minimum inhibitory concentration
Candida albicans = experiment: Antimycotic activity in vitro (series dilution test), Candida albicans; format: cell-based; conditions: growth no longer detectable, Sabourauds' milieu d'epreuve, 28° C, 24 to 96 hours, read-out: Minimum inhibitory concentration
Candida = experiment: Action in candidosis of mice; format: in vivo; conditions: mice SPF-CF1; 100 mg/kg orally one hour before and seven hours after i.v. infection; survivors on 6th day
Description: b. Candidosis of mice Mice of type SPF-CF1 were infected intravenously with 1-2 × 10^6 of logarithmically growing Candida cells which were suspended in physiological sodium chloride solution. One hour before and seven hours after the infection, the animals were treated orally, in each case with 100 mg of the preparations/kg of body weight. Untreated animals died of the infection 3 to 6 days after the infection. The survival rate on the 6th day after infection was about 5% in the case of untreated control animals.

Row | Structure (SMILES) | MIC [1] [µg/mL] | MIC (Penicillium commune) [µg/mL] | MIC (Candida albicans) [µg/mL] | Action in candidosis of mice (Candida)
1 | CC(C)(C)C(O)C(Cn1cncn1)Oc1ccccc1Cl (stereo not drawn) [Example 4] | – | – | – | ++++ (good action = 80% survivors on the 6th day after infection)
2 | CC(C)(C)C(O)C(Cn1cncn1)Oc1cc(Cl)ccc1Cl (stereo not drawn) [Example 7] | – | – | – | ++++ (good action = 80% survivors on the 6th day after infection)
3 | CC(C)(C)C(O)C(Cn1cncn1)Oc1ccccc1Cl (stereo not drawn) [drawing 4] | 32 (≈ 103 µM) | > 64 | – | –
4 | CC(C)(C)C(O)C(Cn1cncn1)Oc1cc(Cl)ccc1Cl (stereo not drawn) [drawing 6] | 32 (≈ 93 µM) | > 64 | – | –

Further lines, with some results ahead:

Row | MIC [1] [µg/mL] | MIC (Penicillium commune) [µg/mL] | MIC (Candida albicans) [µg/mL] | Structure (SMILES) | Action in candidosis of mice (Candida)
5 | > 64 | > 64 | > 64 | CC(C)(C)C(O)C(Cn1cncn1)Oc1cccc(Cl)c1 (stereo not drawn) | –
6 | 4 (≈ 11.6 µM) | > 64 | – | CC(C)(C)C(O)C(Cn1cncn1)Oc1ccc(Cl)cc1Cl (stereo not drawn) | –
7 | – | 64 (≈ 211 µM) | 64 (≈ 211 µM) | Cc1cccc(OC(Cn2cncn2)C(O)C(C)(C)C)c1C (stereo not drawn) | –
8 | 64 (≈ 218 µM) | 64 (≈ 218 µM) | – | CC(C)(C)C(O)C(Cn1cncn1)Oc1ccc(F)cc1 (stereo not drawn) | –
